# Target: T1, human RXFP1 (Homo sapiens, UniProt Q9HBX9)
# T1 construct: expressed in transfected cells
# T1 sequence (Q9HBX9 1-757): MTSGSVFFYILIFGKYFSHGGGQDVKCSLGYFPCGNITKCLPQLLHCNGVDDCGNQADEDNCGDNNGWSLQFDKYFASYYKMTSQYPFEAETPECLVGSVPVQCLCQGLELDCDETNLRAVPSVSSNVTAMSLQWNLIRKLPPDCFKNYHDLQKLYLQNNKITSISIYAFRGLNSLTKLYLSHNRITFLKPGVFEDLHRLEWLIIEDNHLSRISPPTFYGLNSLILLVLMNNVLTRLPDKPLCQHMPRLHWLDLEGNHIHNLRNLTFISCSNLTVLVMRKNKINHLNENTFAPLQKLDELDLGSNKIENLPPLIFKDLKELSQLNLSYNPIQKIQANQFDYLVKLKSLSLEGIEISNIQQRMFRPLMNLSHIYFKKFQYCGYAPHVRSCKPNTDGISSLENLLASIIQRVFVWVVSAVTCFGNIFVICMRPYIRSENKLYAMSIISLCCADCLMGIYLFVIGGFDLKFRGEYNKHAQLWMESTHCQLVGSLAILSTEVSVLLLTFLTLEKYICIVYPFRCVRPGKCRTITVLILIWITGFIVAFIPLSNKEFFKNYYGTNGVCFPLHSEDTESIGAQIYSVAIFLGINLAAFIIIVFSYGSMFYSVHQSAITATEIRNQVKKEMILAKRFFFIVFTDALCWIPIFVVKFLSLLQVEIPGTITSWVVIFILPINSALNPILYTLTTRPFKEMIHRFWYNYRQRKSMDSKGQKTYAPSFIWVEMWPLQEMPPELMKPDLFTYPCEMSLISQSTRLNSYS
# Experiment: hRXFP1 HEK293 cAMP assay (HTRF)
# Type: cell-based
# Conditions: HEK293 cells stably expressing human RXFP1, 30 min at room temperature
# Protocol: RXFP1 Cyclic Adenosine Monophosphate (cAMP) Assays. […] Cells were dissociated and suspended in assay buffer. The assay buffer was HBSS buffer (with calcium and magnesium) containing 20 mM HEPES, 0.05% BSA, and 0.5 mM IBMX. Cells (3000 cells per well, except 1500 cell per well for HEK293 cells stably expressing human RXFP1) were added to 384-well Proxiplates (Perkin-Elmer). Cells were immediately treated with test compounds in DMSO (2% final) at final concentrations in the range of 0.010 nM to 50 μM. Cells were incubated for 30 min at room temperature. The level of intracellular cAMP was determined using the HTRF HiRange cAMP assay reagent kit (Cisbio) according to manufacturer's instructions. Solutions of cryptate conjugated anti-cAMP and d2 fluorophore-labelled cAMP were made in a supplied lysis buffer separately. Upon completion of the reaction, the cells were lysed with equal volume of the d2-cAMP solution and anti-cAMP solution. […] The potency and activity of a compound to […] cAMP production was then determined by fitting to a 4-parametric logistic equation from a plot of cAMP level versus compound concentrations.
row,Molecule,EC50 [nM]
1,"COc1ccc(COCC2CC(O)C2)cc1C(=O)N[C@H]1[C@@H](C(=O)Nc2ccc(F)c(C(F)(F)F)c2)[C@H]2CC[C@@H]1/C2=C\C1CC1 (stereo partly drawn) [Example 291, (1R,2S,3R,4R,7Z)-7-(cyclopropyl-methylidene)-N-[4-fluoro-3-(trifluoromethyl)phenyl]-3-(5-{[(3-hydroxycyclobutyl)methoxy]methyl}-2-methoxybenzamido) bicyclo[2.2.1] heptane-2-carboxamide]",2.22
2,"COc1ccc(CCC(=O)O)cc1C(=O)N[C@@H]1C2CCC(/C2=C/C(F)(F)F)[C@@H]1C(=O)Nc1ccc(F)c(C(F)(F)F)c1 (stereo partly drawn) [Example 9, 3-(3-{[(2R,3S,7Z)-3-{[4-fluoro-3-(trifluoromethyl)phenyl]carbamoyl}-7-(2,2,2-trifluoroethylidene)bicyclo[2.2.1]heptan-2-yl]carbamoyl}-4-methoxyphenyl) propanoic acid]",255
3,"COc1ccc(C(=O)N2CCN(CC(F)F)CC2)cc1C(=O)N[C@H]1[C@@H](C(=O)Nc2ccc(F)c(C(F)(F)F)c2)[C@H]2CC[C@@H]1/C2=C\C1CC1 [Example 255, (1R,2S,3R,4R,7Z)-7-(cyclopropyl-methylidene)-3-{5-[4-(2,2-difluoroethyl)piperazine-1-carbonyl]-2-methoxybenzamido}-N-[4-fluoro-3-heptane-2-(trifluoromethyl)phenyl]bicyclo [2.2.1] carboxamide]",73.4
4,"COc1ccc(CCCNC2CCC2)cc1C(=O)N[C@@H]1C2CCC(/C2=C/C(F)(F)F)[C@@H]1C(=O)Nc1ccc(F)c(C(F)(F)F)c1 (stereo partly drawn) [Example 122, (2S,3R,7Z)-3-{5-[3-(cyclobutylamino)pro-pyl]-2-methoxybenzamido}-N-[4-fluoro-3-(trifluoromethyl)phe-nyl]-7-(2,2,2-trifluoroethylidene)bi-cyclo[2.2.1]heptane-2-carboxamide]",2810
5,"CCCc1ccc(OCCO)c(C(=O)N[C@@H]2C3CCC(/C3=C/C(F)(F)F)[C@@H]2C(=O)Nc2ccc(F)c(C(F)(F)F)c2)c1 (stereo partly drawn) [Example 108, (2S,3R,7Z)-N-[4-fluoro-3-(trifluoromethyl)phe-nyl]-3-[2-(2-hydroxyethoxy)-5-propylbenzamido]-7-(2,2,2-trifluoroethylidene)bi-cyclo[2.2.1]heptane-2-carboxamide]",2270
6,COc1ccc(/C=C(/C)C(=O)N2CCC(O)CC2)cc1C(=O)N[C@H]1[C@@H](C(=O)Nc2ccc(F)c(C(F)(F)F)c2)[C@H]2CC[C@@H]1/C2=C\C(F)(F)F [Example 319],1120
7,CCN1CCN(S(=O)(=O)c2ccc(OC)c(C(=O)N[C@H]3[C@@H](C(=O)Nc4ccc(F)c(C(F)(F)F)c4)[C@H]4CC[C@@H]3/C4=C\C(F)(F)F)c2)CC1 [Example 209],603
8,COc1ccc(C#CCO)cc1C(=O)N[C@@H]1C2CCC(/C2=C/C(F)(F)F)[C@@H]1C(=O)Nc1ccc(F)c(C(F)(F)F)c1 (some centres unmarked) [Example 68],144
9,"COc1ccc(C#CCCCCOC(=O)NC2CCC2)cc1C(=O)N[C@@H]1C2CCC(/C2=C/C(F)(F)F)[C@@H]1C(=O)Nc1ccc(F)c(C(F)(F)F)c1 (stereo partly drawn) [Example 81, 6-(3-{[(2R,3S,7Z)-3-{[4-fluoro-3-(trifluoromethyl)phe-nyl]carbamoyl}-7-(2,2,2-trifluoroethylidene)bi-cyclo[2.2.1]heptan-2-yl]carbamoyl}-4-methoxyphenyl)hex-5-yn-1-yl N-cyclobutylcarbamate]",373
10,"COc1ccc(C2CC3CC(CO)CC32)cc1C(=O)N[C@H]1[C@@H](C(=O)Nc2ccc(F)c(C(F)(F)F)c2)[C@H]2CC[C@@H]1/C2=C\C1CC1 (single isomer, unassigned) [Example 348]",34
11,"COc1ccc(C2CCC(O)CC2)cc1C(=O)NC1C2CCC(/C2=C/C(F)(F)F)[C@@H]1C(=O)Nc1ccc(F)c(C(F)(F)F)c1 (single isomer, unassigned) [Example 53]",396
12,"COc1ccc(C2CC2C(=O)O)cc1C(=O)N[C@@H]1C2CCC(/C2=C/C(F)(F)F)[C@@H]1C(=O)Nc1ccc(F)c(C(F)(F)F)c1 (single isomer, unassigned) [Example 62]",172
13,"COc1ccc(/C=C/C(=O)N2CC3CCC(C2)O3)cc1C(=O)N[C@H]1[C@@H](C(=O)Nc2ccc(F)c(C(F)(F)F)c2)[C@H]2CC[C@@H]1/C2=C\C1CC1 [Example 308, (1R,2S,3R,4R,7Z)-7-(cyclopropylmethylidene)-N-[4-fluoro-3-(trifluoromethyl)phenyl]-3-{2-methoxy-5-[(1E)-3-{8-oxa-3-azabicyclo[3.2.1]octan-3-yl}-3-oxoprop-1-en-1-yl]benzamido} bicyclo[2.2.1] heptane-2-carboxamide]",13.7
14,"COC(=O)C1CC(c2ccc(OC)c(C(=O)N[C@H]3[C@@H](C(=O)Nc4ccc(F)c(C(F)(F)F)c4)[C@H]4CC[C@@H]3/C4=C\C3CC3)c2)C1 (single isomer, unassigned) [Example 332]",112
15,"COc1ccc(CCCO)cc1C(=O)N[C@@H]1C2CCC(/C2=C/C(F)(F)F)[C@@H]1C(=O)Nc1ccc(F)c(C(F)(F)F)c1 (stereo partly drawn) [Example 84, (2S,3R,7Z)-N-[4-fluoro-3-(trifluoromethyl)phe-nyl]-3-[5-(3-hydroxypropyl)-2-methoxybenzamido]-7-(2,2,2-trifluoroethylidene)bi-cyclo[2.2.1]heptane-2-carboxamide]",67
16,"COc1ccc(/C=C/C(=O)O)cc1C(=O)N[C@H]1[C@@H](C(=O)Nc2ccc(F)c(C(F)(F)F)c2)[C@H]2CC[C@@H]1/C2=C\C(F)(F)F [Example 8, (E)-3-(3-(((1R,2R,3S,4R,Z)-3-((4-fluoro-3-(trifluoromethyl)phenyl)carbamoyl)-7-(2,2,2-trifluoroethylidene)bicyclo[2.2.1]heptan-2-yl)carbamoyl)-4-methoxyphenyl) acrylic acid]",309
17,"CCCc1ccc(OC)c(C(=O)N[C@@H]2C3CCC(/C3=C/C(F)(F)F)[C@@H]2C(=O)Nc2ccc(F)c(C(F)(F)F)c2)c1 (stereo partly drawn) [Example 85, (2S,3R,7Z)-N-[4-fluoro-3-(trifluoromethyl)phe-nyl]-3-(2-methoxy-5-propylbenzamido)-7-(2,2,2-trifluoroethylidene)bi-cyclo[2.2.1]heptane-2-carboxamide]",3000
18,"(2S,3R,7Z)-7- butylidene-N-[4- fluoro-3- (trifluoromethyl)phe- nyl]-3-[5-(3- hydroxy-3- methylbutyl)-2- methoxybenzamido] bicyclo[2.2.1]heptane- 2-carboxamide [Example 88]",28
19,"COc1ccc(COC2CC2)cc1C(=O)N[C@@H]1C2CCC(/C2=C/C2CC2)[C@@H]1C(=O)Nc1ccc(F)c(C(F)(F)F)c1 (stereo partly drawn) [Example 19, (2S,3R,7Z)-3-[5-(cyclopropoxymethyl)-2-methoxybenzamido]-7-(cyclopropylmethyli-dene)-N-[4-fluoro-3-(trifluoromethyl)phe-nyl]bicyclo[2.2.1]hept-ane-2-carboxamide]",125
20,"COc1ccc(/C=C/C(=O)N2CCO[C@@H](CO)C2)cc1C(=O)N[C@H]1[C@@H](C(=O)Nc2ccc(F)c(C(F)(F)F)c2)[C@H]2CC[C@@H]1/C2=C\C1CC1 [Example 307, (1R,2S,3R,4R,7Z)-7-(cyclopropyl-methylidene)-N-[4-fluoro-3-(trifluoromethyl)phenyl]-3-{5-[(1E)-3-[(2R)-2-(hydroxymethyl)morpholin-4-yl]-3-oxoprop-1-en-1-yl]-2-methoxybenzamido} bicyclo[2.2.1]heptane-2-carboxamide]",18.5
